Literature values, collected in patent US20250170148A1, “NEUROACTIVE STEROIDS FOR TREATMENT OF GASTROINTESTINAL DISEASES OR CONDITIONS” (Sage Therapeutics, Inc., priority 2022, published 2025).
Entries after “also recorded” stand apart in the source; their conditions may differ. Like-named read-outs stand apart in the source and are kept apart here.

Assays:
[1] = test system: patients with major depressive disorder; conditions: meta-analysis; for rate of gastrointestinal adverse reactions compared to placebo: 15 most commonly used antidepressants in MDD; for gastrointestinal tolerability among antidepressants: patients with MDD

Compound | rate of gastrointestinal adverse reactions compared to placebo [1] | other results
CC(NC(C)(C)C)C(=O)c1cccc(Cl)c1 (centres unmarked) [bupropion] | higher rates of gastrointestinal adverse reactions compared to placebo | 
COc1ccc2cccc(CCNC(C)=O)c2c1 [agomelatine] | higher rates of gastrointestinal adverse reactions compared to placebo | 
CN(C)CC(c1ccc(O)cc1)C1(O)CCCCC1 (centres unmarked) [desvenlafaxine] | higher rates of gastrointestinal adverse reactions compared to placebo | 
CNCCC(Oc1ccc(C(F)(F)F)cc1)c1ccccc1 (centres unmarked) [fluoxetine] | higher rates of gastrointestinal adverse reactions compared to placebo | 
CN(C)CCCC1(c2ccc(F)cc2)OCc2cc(C#N)ccc21 (centres unmarked) [citalopram] | higher rates of gastrointestinal adverse reactions compared to placebo | 
COc1ccc(C(CN(C)C)C2(O)CCCCC2)cc1 (centres unmarked) [venlafaxine] | higher rates of gastrointestinal adverse reactions compared to placebo | rates of nausea and vomiting (compared to SSRIs and duloxetine): higher rates of nausea and vomiting
COCCCC/C(=N\OCCN)c1ccc(C(F)(F)F)cc1 [fluvoxamine] | higher rates of gastrointestinal adverse reactions compared to placebo | 
Cc1ccc(Sc2ccccc2N2CCNCC2)c(C)c1 [vortioxetine] | higher rates of gastrointestinal adverse reactions compared to placebo | 
Fc1ccc([C@@H]2CCNC[C@H]2COc2ccc3c(c2)OCO3)cc1 [paroxetine] | higher rates of gastrointestinal adverse reactions compared to placebo | 
CN(C)CCC[C@@]1(c2ccc(F)cc2)OCc2cc(C#N)ccc21 [escitalopram] | higher rates of gastrointestinal adverse reactions compared to placebo | gastrointestinal tolerability among antidepressants [1]: least tolerated antidepressants on the gastrointestinal tract; gastrointestinal tolerability among antidepressants ([1]; listed as Escitalopram): least tolerated antidepressants on the GI tract
CNCC[C@H](Oc1cccc2ccccc12)c1cccs1 [duloxetine] | higher rates of gastrointestinal adverse reactions compared to placebo | 
CN1CCN2c3ncccc3Cc3ccccc3C2C1 (centres unmarked) [mirtazapine] | higher rates of gastrointestinal adverse reactions compared to placebo | 
CCN(CC)C(=O)[C@@]1(c2ccccc2)C[C@H]1CN [levomilnacipran] | higher rates of gastrointestinal adverse reactions compared to placebo | 
CN[C@H]1CC[C@@H](c2ccc(Cl)c(Cl)c2)c2ccccc21 [sertraline] | higher rates of gastrointestinal adverse reactions compared to placebo | gastrointestinal tolerability among antidepressants [1]: least tolerated antidepressants on the gastrointestinal tract; also recorded: least tolerated antidepressants on the GI tract; incidence of diarrhea (compared to other SSRIs and venlafaxine): higher incidence of diarrhea
CCOc1ccccc1OC(c1ccccc1)C1CNCCO1 (centres unmarked) [reboxetine] | higher rates of gastrointestinal adverse reactions compared to placebo | 
